Measurements from ChEMBL document CHEMBL1201862, “PubChem BioAssay data set” (2004).
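In this assay, cells in 96-well plates receive the compound at five concentrations for 48 hours. Endpoints are linearly interpolated between the surrounding concentrations. GI50 is the concentration that inhibits growth by half.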 Calls of active or inactive are those of the source. No stated cut-off is given here; in the data, active = GI50 up to about 1.1 µM and inactive = higher.

What was measured:
Assay in all cases: DTP human tumour cell line panel, 48 h
OVCAR-4 = tested on: OVCAR-4
HCT-15 = tested on: HCT-15
IGROV-1 = tested on: IGROV-1
HOP-62 = tested on: HOP-62
UACC-257 = tested on: UACC-257
MDA-MB-231 = tested on: MDA-MB-231
M14 = tested on: M14
U-251 = tested on: U-251
NCI-H23 = tested on: NCI-H23
CAKI-1 = tested on: CAKI-1
A498 = tested on: A498
OVCAR-3 = tested on: OVCAR-3
HCC 2998 = tested on: HCC 2998
ACHN = tested on: ACHN
NCI-H460 = tested on: NCI-H460
PC-3 = tested on: PC-3
SK-MEL-28 = tested on: SK-MEL-28
NCI-H226 = tested on: NCI-H226
HCT-116 = tested on: HCT-116
SN12C = tested on: SN12C
NCI/ADR-RES = tested on: NCI/ADR-RES
HOP-92 = tested on: HOP-92
LOX IMVI = tested on: LOX IMVI
SF-268 = tested on: SF-268
RPMI-8226 = tested on: RPMI-8226
SK-MEL-5 = tested on: SK-MEL-5
BT-549 = tested on: BT-549
TK-10 = tested on: TK-10
RXF 393 = tested on: RXF 393
MCF7 = tested on: MCF7
NCI-H522 = tested on: NCI-H522
MOLT-4 = tested on: MOLT-4
SF-539 = tested on: SF-539
UO-31 = tested on: UO-31
OVCAR-5 = tested on: OVCAR-5
SNB-19 = tested on: SNB-19
SK-OV-3 = tested on: SK-OV-3
A549 = tested on: A549
T47D = tested on: T47D
SK-MEL-2 = tested on: SK-MEL-2
SNB-75 = tested on: SNB-75
K562 = tested on: K562
SF-295 = tested on: SF-295
786-0 = tested on: 786-0
MDA-MB-435 = tested on: MDA-MB-435
MDA-N = tested on: MDA-N
EKVX = tested on: EKVX
KM12 = tested on: KM12
Malme-3M = tested on: Malme-3M
COLO 205 = tested on: COLO 205
SW-620 = tested on: SW-620
Hs-578T = tested on: Hs-578T
UACC-62 = tested on: UACC-62
HT-29 = tested on: HT-29
HL-60 = tested on: HL-60
CCRF-CEM = tested on: CCRF-CEM
DU-145 = tested on: DU-145
OVCAR-8 = tested on: OVCAR-8

In the case of `CN(C)S(=O)(=O)n1cnc(CO)c1`, the GI50 (OVCAR-4) is reported as > 100 µM (inactive), the GI50 (HCT-15) is reported as over 100 µM and the GI50 (IGROV-1) is reported as > 100 µM (inactive). The GI50 (HOP-62) was > 100 µM (inactive), the GI50 (UACC-257) was > 100 µM (inactive) and the GI50 (MDA-MB-231) was > 100 µM (inactive). For the same molecule, the GI50 (M14) was > 100 µM (inactive), the GI50 (U-251) was > 100 µM (inactive) and the GI50 (NCI-H23) was > 100 µM (inactive). The GI50 (CAKI-1) was > 100 µM (inactive), the GI50 (A498) was > 100 µM (inactive) and the GI50 (OVCAR-3) was > 100 µM (inactive). The GI50 (HCC 2998) was > 100 µM (inactive), the GI50 (ACHN) was > 100 µM (inactive) and the GI50 (NCI-H460) was > 100 µM (inactive). For the same molecule, the GI50 (PC-3) was > 100 µM (inactive), the GI50 (SK-MEL-28) was > 100 µM (inactive) and the GI50 (NCI-H226) was > 100 µM (inactive). For the same molecule, the GI50 (HCT-116) was > 100 µM (inactive), the GI50 (SN12C) was > 100 µM (inactive) and the GI50 (NCI/ADR-RES) was > 100 µM (inactive). For the same molecule, the GI50 (HOP-92) was > 100 µM (inactive), the GI50 (LOX IMVI) was > 100 µM (inactive) and the GI50 (SF-268) was > 100 µM (inactive). For the same molecule, the GI50 (RPMI-8226) was > 100 µM (inactive), the GI50 (SK-MEL-5) was > 100 µM (inactive) and the GI50 (BT-549) was > 100 µM (inactive). The GI50 (TK-10) was > 100 µM (inactive), the GI50 (RXF 393) was > 100 µM (inactive) and the GI50 (MCF7) was > 100 µM (inactive). The GI50 (NCI-H522) was > 100 µM (inactive), the GI50 (MOLT-4) was > 100 µM (inactive) and the GI50 (SF-539) was > 100 µM (inactive). The GI50 (UO-31) was > 100 µM (inactive), the GI50 (OVCAR-5) was > 100 µM (inactive) and the GI50 (SNB-19) was > 100 µM (inactive). For the same molecule, the GI50 (SK-OV-3) was > 100 µM (inactive), the GI50 (A549) was > 100 µM (inactive) and the GI50 (T47D) was > 100 µM (inactive). For the same molecule, the GI50 (SK-MEL-2) was > 100 µM (inactive), the GI50 (SNB-75) was > 100 µM (inactive) and the GI50 (K562) was > 100 µM (inactive). The GI50 (SF-295) was > 100 µM (inactive), the GI50 (786-0) was > 100 µM (inactive) and the GI50 (MDA-MB-435) was > 100 µM (inactive). The GI50 (MDA-N) was > 100 µM (inactive), the GI50 (EKVX) was > 100 µM (inactive) and the GI50 (KM12) was > 100 µM (inactive). The GI50 (Malme-3M) was > 100 µM (inactive), the GI50 (COLO 205) was > 100 µM (inactive) and the GI50 (SW-620) was > 100 µM (inactive).
In the case of `CC(C)(C)C(=O)N1CCN(C=O)C1=S`, the GI50 (OVCAR-4) is reported as > 100 µM (inactive), the GI50 (HCT-15) is reported as 53.2 µM and the GI50 (IGROV-1) is reported as 47.3 µM (inactive). The GI50 (HOP-62) was > 100 µM (inactive), the GI50 (UACC-257) was 62.7 µM (inactive) and the GI50 (MDA-MB-231) was > 100 µM (inactive). The GI50 (M14) was 31 µM (inactive), the GI50 (U-251) was 80.7 µM (inactive) and the GI50 (NCI-H23) was 77.3 µM (inactive). The GI50 (CAKI-1) was 34.6 µM (inactive), the GI50 (A498) was 18.7 µM (inactive) and the GI50 (OVCAR-3) was 38.2 µM (inactive). The GI50 (HCC 2998) was 64.9 µM (inactive), the GI50 (ACHN) was 57.9 µM (inactive) and the GI50 (Hs-578T) was 58.5 µM (inactive). For the same molecule, the GI50 (NCI-H460) was > 100 µM (inactive), the GI50 (PC-3) was > 100 µM (inactive) and the GI50 (SK-MEL-28) was 50.4 µM (inactive). The GI50 (NCI-H226) was > 100 µM (inactive), the GI50 (HCT-116) was > 100 µM (inactive) and the GI50 (SN12C) was 36.8 µM (inactive). For the same molecule, the GI50 (NCI/ADR-RES) was > 100 µM (inactive), the GI50 (HOP-92) was 16.8 µM (inactive) and the GI50 (LOX IMVI) was 34.2 µM (inactive). For the same molecule, the GI50 (SF-268) was 80.4 µM (inactive), the GI50 (RPMI-8226) was 24.8 µM (inactive) and the GI50 (UACC-62) was 32.1 µM (inactive). The GI50 (BT-549) was 46.2 µM (inactive), the GI50 (TK-10) was 92 µM (inactive) and the GI50 (RXF 393) was 24.6 µM (inactive). The GI50 (MCF7) was 15.6 µM (inactive), the GI50 (NCI-H522) was 26.8 µM (inactive) and the GI50 (MOLT-4) was 61.5 µM (inactive). For the same molecule, the GI50 (SF-539) was > 100 µM (inactive), the GI50 (UO-31) was 0.0693 µM (active) and the GI50 (HT-29) was > 100 µM (inactive). For the same molecule, the GI50 (OVCAR-5) was > 100 µM (inactive), the GI50 (SNB-19) was > 100 µM (inactive) and the GI50 (SK-OV-3) was > 100 µM (inactive). For the same molecule, the GI50 (HL-60) was 47.3 µM (inactive), the GI50 (A549) was 27.5 µM (inactive) and the GI50 (T47D) was 34 µM (inactive). The GI50 (SK-MEL-2) was > 100 µM (inactive), the GI50 (SNB-75) was 30.1 µM (inactive) and the GI50 (K562) was 35.2 µM (inactive). For the same molecule, the GI50 (SF-295) was > 100 µM (inactive), the GI50 (786-0) was 36.7 µM (inactive) and the GI50 (MDA-MB-435) was 35.9 µM (inactive). The GI50 (CCRF-CEM) was 29.8 µM (inactive), the GI50 (DU-145) was 33.5 µM (inactive) and the GI50 (EKVX) was > 100 µM (inactive). For the same molecule, the GI50 (KM12) was 75.9 µM (inactive), the GI50 (Malme-3M) was 61.4 µM (inactive) and the GI50 (COLO 205) was > 100 µM (inactive). The GI50 (SW-620) was 44.9 µM (inactive) and the GI50 (OVCAR-8) was 36.5 µM (inactive).
